In patent publication US5914348A, “Substance FA-70D, process for producing the same, and uses thereof” (Taiho Pharmaceutical Co., Ltd., priority 1996, dated 1999):
Numbered stars: 1 amine (or outer) side, 2 acyl side, 3 side chain; on linkers, the order of the positions; unused ones are H or OH. Square brackets hold non-standard residues; d marks the D form. Peptide text beside a SMILES is read from it. Cit = NC(=O)NCCC[CH](N)C(=O)O; Phe(ol) = N[CH](CO)Cc1ccccc1; CO = O=C([*:1])[*:2]

Tests used:
[1] = target: cathepsin B (Homo sapiens, UniProt P07858); assay: Inhibitory activity against cathepsin B (fluorescence, carbobenzoxy-L-phenylalanyl-L-arginine-4-methylcoumaryl-7-amide substrate); type: biochemical; conditions: pH 6.0, 40° C., read-out: Enzyme inhibitory activity (%)
Method: (§1) The inhibitory activity against cathepsin L or cathepsin B was assayed by the method of A. J. Barrett et al. [Biochemical Journal, 201, 189-198, 1982]. The chymotrypsin- or trypsin-hibitory activity was assayed in accordance with the methods described in Tsuru, D. and Funatsu, M. (ed.), Seikagaku Jikkenho-Tanpakushitsu Bunkai Koso II [Methods of Biochemistry, Proteolytic Enzymes II], vol. 31, 7-14, 1993.
(§2) The method for assay of inhibitory activity against cathepsin B is as follows. Thus, 0.5 ml of 400 mM sodium phosphate buffer (pH 6.0) containing 8 mM dithiothreitol and 4 mM tetrasodium ethylenediaminetetracetate, 0.8 ml of an enzyme solution containing 5 μM cathepsin B and 0.1% Brij 35 (Wako Pure Chemical Ind.), and 0.2 ml of an aqueous solution of the compound of the invention were preincubated at 40° C. for 10 minutes. […] The intensity of fluorescence (F) was determined at an exciting wavelength of 350 nm and an emission wavelength of 458 nm. As a control, 0.2 ml of water was added in lieu of 0.2 ml of said aqueous solution of the compound of the invention and the intensity of fluorescence (F0) at 458 nm was similarly measured. The enzyme inhibitory activity was calculated by means of the following formula. […]

[2] = target: cathepsin L (Homo sapiens, UniProt P07711); assay: Inhibitory activity against cathepsin L (fluorescence, carbobenzoxy-L-phenylalanyl-L-arginine-4-methylcoumaryl-7-amide substrate); type: biochemical
Sequence of cathepsin L (P07711 114-333, species assumed): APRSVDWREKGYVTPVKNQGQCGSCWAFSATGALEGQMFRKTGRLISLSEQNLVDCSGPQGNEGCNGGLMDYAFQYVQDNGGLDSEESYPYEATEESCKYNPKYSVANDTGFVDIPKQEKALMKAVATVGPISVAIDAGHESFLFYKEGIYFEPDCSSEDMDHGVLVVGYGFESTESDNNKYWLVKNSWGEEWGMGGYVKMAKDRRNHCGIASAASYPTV
Method: as §1
The method for assay of inhibitory activity against cathepsin B is as follows. Thus, 0.5 ml of 400 mM sodium phosphate buffer (pH 6.0) containing 8 mM dithiothreitol and 4 mM tetrasodium ethylenediaminetetracetate, 0.8 ml of an enzyme solution containing 5 μM cathepsin B and 0.1% Brij 35 (Wako Pure Chemical Ind.), and 0.2 ml of an aqueous solution of the compound of the invention were preincubated at 40° C. for 10 minutes. Then, 0.5 ml of a 0.1% aqueous solution of dimethyl sulfoxide containing 20 μM carbobenzoxy-L-phenylalanyl-L-arginine-4-methylcoumaryl-7-amide was added and the mixture was incubated at 40° C. for 10 minutes. The enzymatic reaction was then stopped by adding 2.0 ml of 100 mM sodium acetate buffer (pH 4.3) containing 100 mM sodium monochloroacetate. The intensity of fluorescence (F) was determined at an exciting wavelength of 350 nm and an emission wavelength of 458 nm. As a control, 0.2 ml of water was added in lieu of 0.2 ml of said aqueous solution of the compound of the invention and the intensity of fluorescence (F0) at 458 nm was similarly measured. The enzyme inhibitory activity was calculated by means of the following formula.
(§3) Enzyme inhibitory activity (%)=F/F0 ×100
The inhibitory activity against cathepsin L was assayed as follows. Thus, except that cathepsin L was used in lieu of cathepsin B at the same concentration and the 400 mM sodium phosphate buffer was adjusted to pH 5.5, the above assay procedure for cathepsin B was otherwise repeated to determine the enzyme inhibitory activity.

[3] = target: chymotrypsin (Bos taurus, UniProt P00766); assay: Inhibitory activity against chymotrypsin (fluorescence, succinyl-L-leucyl-L-leucyl-L-valyl-L-tyrosine-4-methylcoumaryl-7-amide substrate); type: biochemical
Method: as §1
(§4) The inhibitory activity against chymotrypsin was assayed in the following manner. Thus, 0.1 ml of 100 mM Tris-HCl buffer (pH 7.5), 0.15 ml of water, 0.01 ml of 5 ng/ml chymotrypsin/water, and 0.04 ml of an aqueous solution of the compound of the invention were preincubated at 37° C. for 5 minutes. Then, 0.1 ml of an aqueous solution containing 100 μM succinyl-L-leucyl-L-leucyl-L-valyl-L-tyrosine-4-methylcoumaryl-7-amide was added and the mixture was incubated at 37° C. for 20 minutes. The enzymatic reaction was stopped by adding 0.5 ml of 100 mM sodium acetate buffer (pH 4.3) containing 100 mM sodium monochloroacetate and the intensity of fluorescence (F) was measured at an exciting wavelength of 350 nm and an emission wavelength of 458 nm. As a control, 0.04 ml of water was added in lieu of 0.04 ml of said aqueous solution of the compound of the invention and the intensity of fluorescence (F0) at 458 nm was similarly measured. The enzyme inhibitory activity was calculated by the following formula.
as §3

[4] = target: T1, trypsin (Bos taurus, UniProt P00760); assay: Inhibitory activity against trypsin (fluorescence, benzoyl-L-leucyl-L-lysyl-arginine-4-methylcoumaryl-7-amide substrate); type: biochemical; conditions: pH 7.5, 37° C., read-out: Enzyme inhibitory activity (%)
T1 sequence (P00760 24-246): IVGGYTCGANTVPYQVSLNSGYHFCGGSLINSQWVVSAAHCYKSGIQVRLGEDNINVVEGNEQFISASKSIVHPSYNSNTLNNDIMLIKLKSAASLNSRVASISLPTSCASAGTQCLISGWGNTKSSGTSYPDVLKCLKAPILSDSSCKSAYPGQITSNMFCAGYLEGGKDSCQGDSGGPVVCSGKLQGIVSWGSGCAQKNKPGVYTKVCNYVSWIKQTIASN
Method: as §1, §4, §3
The inhibitory activity against trypsin was measured as follows. Except that trypsin was used in lieu of chymotrypsin at the same concentration and benzoyl-L-leucyl-L-lysyl-arginine-4-methylcoumaryl-7-amide was used in lieu of succinyl-L-leucyl-L-leucyl-L-valyl-L-tyrosine-4-methylcoumaryl-7-amide at the same concentration, the above procedure for assaying the inhibitory activity against chymotrypsin was otherwise repeated and the enzyme inhibitory activity was calculated in the same manner as above.

[5] = target: T2, papain (Carica papaya, UniProt P00784); assay: Assay of papain inhibitory activity; type: biochemical; conditions: used for identification during purification
T2 sequence (P00784 134-345): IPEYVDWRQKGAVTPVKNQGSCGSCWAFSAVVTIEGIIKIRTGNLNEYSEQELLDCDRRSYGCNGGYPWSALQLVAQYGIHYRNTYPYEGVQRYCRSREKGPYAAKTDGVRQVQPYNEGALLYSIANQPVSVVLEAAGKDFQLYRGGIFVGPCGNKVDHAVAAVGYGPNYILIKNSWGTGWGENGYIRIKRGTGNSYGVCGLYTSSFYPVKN
Method: Detection of active fractions containing Substance FA-70D in each stage was carried out by the assay of papain inhibitory activity (Biochemical Journal, 201, 189-198, 1982).
Thus, 0.5 ml of 400 mM sodium phosphate buffer (pH 6.8) containing 8 mM dithiothreitol and 4 mM tetrasodium ethylenediaminetetracetate, 0.8 ml of an enzyme solution containing 5 μM papain and 0.1% Brij 35 (polyoxyethylene (23) lauryl ether) (Wako Pure Chemical Ind.), and 0.2 ml of an aqueous solution containing a sample were preincubated at 40° C. for 10 minutes. Then, 0.5 ml of a 0.1% aqueous solution of dimethyl sulfoxide containing 20 μM carbobenzoxy-L-phenylalanyl-L-arginine-4-methylcoumaryl-7-amide was added and the mixture was incubated at 40° C. for 10 minutes. The enzymatic reaction was stopped by adding 2.0 ml of 100 mM sodium acetate buffer (pH 4.3) containing 100 mM sodium monochloroacetate and the intensity of fluorescence (F) was measured at an exciting wavelength of 350 nm and an emission wavelength of 458 nm. As a control, 0.2 ml of water was added in lieu of 0.2 ml of said aqueous solution of the sample and the intensity of fluorescence (F0) at 458 nm was similarly measured. The enzyme inhibitory activity was calculated by means of the following formula.
as §3

[6] = Solubility; type: physicochemical
[7] = test system: cathepsin series proteases; assay: Inhibition of cathepsin series proteases; type: biochemical
Method: as §1, §2

CC(C)C(NC(=O)C(CCCNC(N)=O)NC(=O)NC(Cc1ccccc1)C(=O)O)C(=O)NC(CO)Cc1ccccc1 (stereo not drawn) [Substance FA-70D] ({Phe-CO}-[Cit]-Val-[Phe(ol)]; configuration not given here)
inhibition at 1 µM ([1]; FA-70D 10^-6 M): 85.5%
inhibition at 0.1 µM ([1]; FA-70D 10^-7 M): 23.7%
inhibits cathepsin L more strongly than cathepsin B ([2]; cathepsin L vs cathepsin B, Test Example 1): inhibits cathepsin L more strongly than cathepsin B
inhibition at 1 µM ([2]; cathepsin L, FA-70D 10^-6 M, pH 5.5, 40° C., read-out: Enzyme inhibitory activity (%)): 93.5%
inhibition at 0.1 µM ([2]; cathepsin L, FA-70D 10^-7 M, pH 5.5, 40° C., read-out: Enzyme inhibitory activity (%)): 72%
inhibition at 0.01 µM ([2]; cathepsin L, FA-70D 10^-8 M, pH 5.5, 40° C., read-out: Enzyme inhibitory activity (%)): 15.1%
inhibits chymotrypsin more strongly than trypsin ([3]; chymotrypsin vs trypsin, Test Example 1): inhibits chymotrypsin more strongly than trypsin
inhibition at 1 µM ([3]; chymotrypsin, FA-70D 10^-6 M, pH 7.5, 37° C., read-out: Enzyme inhibitory activity (%)): 99.9%
inhibition at 0.1 µM ([3]; chymotrypsin, FA-70D 10^-7 M, pH 7.5, 37° C., read-out: Enzyme inhibitory activity (%)): 97.6%
inhibition at 0.01 µM ([3]; chymotrypsin, FA-70D 10^-8 M, pH 7.5, 37° C., read-out: Enzyme inhibitory activity (%)): 70.7%
inhibition at 1 µM ([4]; FA-70D 10^-6 M): 43.3%
inhibition at 0.1 µM ([4]; FA-70D 10^-7 M): 14%
inhibition at 0.01 µM ([4]; FA-70D 10^-8 M): 9.4%
enzymatic activity of papain inhibited by the substance [5]: inhibited by the substance
Solubility ([6]; in chloroform, acetone, ethyl acetate, ether, and hexane): Practically insoluble
Solubility ([6]; in ethanol): slightly soluble
Solubility ([6]; in methanol and dimethylsulfoxide): readily soluble
inhibit cathepsin series proteases [7]: strongly inhibit
